# Test results taken from patent US4276378A, “High sensitivity assays for angiotensin converting enzyme” (priority 1977, dated 1981).
# Peptide text beside a SMILES is read from it. * marks the point of attachment. Bz = O=C(c1ccccc1)*
# How the values were obtained:
# [1] = target: T1, Guinea pig urinary ACE (Cavia porcellus, UniProt H0UWL7); test: Sulfate and chloride effects on substrate hydrolysis (Example 3); type: biochemical; settings: 37° C.
# T1 sequence (H0UWL7 33-1302): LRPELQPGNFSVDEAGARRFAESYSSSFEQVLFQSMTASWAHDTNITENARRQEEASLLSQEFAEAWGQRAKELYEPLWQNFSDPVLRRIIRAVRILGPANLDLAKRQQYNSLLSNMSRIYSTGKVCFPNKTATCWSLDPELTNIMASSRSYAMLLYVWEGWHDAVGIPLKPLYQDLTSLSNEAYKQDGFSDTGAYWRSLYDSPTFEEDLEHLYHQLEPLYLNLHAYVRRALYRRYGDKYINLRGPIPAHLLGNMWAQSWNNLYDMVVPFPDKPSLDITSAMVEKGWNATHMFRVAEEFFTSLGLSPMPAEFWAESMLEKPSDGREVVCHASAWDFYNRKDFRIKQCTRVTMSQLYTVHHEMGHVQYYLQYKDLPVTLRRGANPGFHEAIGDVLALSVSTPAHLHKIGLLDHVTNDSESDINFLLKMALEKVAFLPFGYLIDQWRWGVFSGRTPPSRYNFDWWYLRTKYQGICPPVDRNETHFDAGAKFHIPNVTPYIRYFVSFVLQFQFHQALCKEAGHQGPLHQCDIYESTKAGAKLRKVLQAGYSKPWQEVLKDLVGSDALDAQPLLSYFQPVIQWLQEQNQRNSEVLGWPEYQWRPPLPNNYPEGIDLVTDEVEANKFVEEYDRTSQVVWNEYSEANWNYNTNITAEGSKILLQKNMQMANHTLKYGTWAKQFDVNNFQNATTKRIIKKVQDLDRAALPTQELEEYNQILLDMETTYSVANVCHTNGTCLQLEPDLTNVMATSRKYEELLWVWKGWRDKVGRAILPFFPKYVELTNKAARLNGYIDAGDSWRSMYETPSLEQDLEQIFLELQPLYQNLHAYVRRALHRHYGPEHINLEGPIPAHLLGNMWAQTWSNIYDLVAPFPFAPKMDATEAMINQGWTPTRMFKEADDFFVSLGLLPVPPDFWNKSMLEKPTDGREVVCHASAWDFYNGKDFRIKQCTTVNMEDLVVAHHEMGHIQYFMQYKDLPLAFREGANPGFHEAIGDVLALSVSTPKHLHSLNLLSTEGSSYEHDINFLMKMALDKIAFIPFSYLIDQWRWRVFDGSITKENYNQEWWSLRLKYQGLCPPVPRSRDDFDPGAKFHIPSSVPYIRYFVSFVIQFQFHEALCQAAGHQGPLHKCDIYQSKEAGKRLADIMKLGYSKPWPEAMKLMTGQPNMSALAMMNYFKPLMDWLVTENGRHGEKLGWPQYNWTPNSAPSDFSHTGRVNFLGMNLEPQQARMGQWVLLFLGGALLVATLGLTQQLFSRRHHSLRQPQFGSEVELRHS
# [2] = system: ACE; test: Apparent Km for HipHisLeu without sulfate; type: biochemical
# [3] = target: ACE (Homo sapiens, UniProt P12821); settings: chloride absent; cited from earlier work
# Sequence of ACE (Homo sapiens, UniProt P12821) (P12821 30-1306, species assumed): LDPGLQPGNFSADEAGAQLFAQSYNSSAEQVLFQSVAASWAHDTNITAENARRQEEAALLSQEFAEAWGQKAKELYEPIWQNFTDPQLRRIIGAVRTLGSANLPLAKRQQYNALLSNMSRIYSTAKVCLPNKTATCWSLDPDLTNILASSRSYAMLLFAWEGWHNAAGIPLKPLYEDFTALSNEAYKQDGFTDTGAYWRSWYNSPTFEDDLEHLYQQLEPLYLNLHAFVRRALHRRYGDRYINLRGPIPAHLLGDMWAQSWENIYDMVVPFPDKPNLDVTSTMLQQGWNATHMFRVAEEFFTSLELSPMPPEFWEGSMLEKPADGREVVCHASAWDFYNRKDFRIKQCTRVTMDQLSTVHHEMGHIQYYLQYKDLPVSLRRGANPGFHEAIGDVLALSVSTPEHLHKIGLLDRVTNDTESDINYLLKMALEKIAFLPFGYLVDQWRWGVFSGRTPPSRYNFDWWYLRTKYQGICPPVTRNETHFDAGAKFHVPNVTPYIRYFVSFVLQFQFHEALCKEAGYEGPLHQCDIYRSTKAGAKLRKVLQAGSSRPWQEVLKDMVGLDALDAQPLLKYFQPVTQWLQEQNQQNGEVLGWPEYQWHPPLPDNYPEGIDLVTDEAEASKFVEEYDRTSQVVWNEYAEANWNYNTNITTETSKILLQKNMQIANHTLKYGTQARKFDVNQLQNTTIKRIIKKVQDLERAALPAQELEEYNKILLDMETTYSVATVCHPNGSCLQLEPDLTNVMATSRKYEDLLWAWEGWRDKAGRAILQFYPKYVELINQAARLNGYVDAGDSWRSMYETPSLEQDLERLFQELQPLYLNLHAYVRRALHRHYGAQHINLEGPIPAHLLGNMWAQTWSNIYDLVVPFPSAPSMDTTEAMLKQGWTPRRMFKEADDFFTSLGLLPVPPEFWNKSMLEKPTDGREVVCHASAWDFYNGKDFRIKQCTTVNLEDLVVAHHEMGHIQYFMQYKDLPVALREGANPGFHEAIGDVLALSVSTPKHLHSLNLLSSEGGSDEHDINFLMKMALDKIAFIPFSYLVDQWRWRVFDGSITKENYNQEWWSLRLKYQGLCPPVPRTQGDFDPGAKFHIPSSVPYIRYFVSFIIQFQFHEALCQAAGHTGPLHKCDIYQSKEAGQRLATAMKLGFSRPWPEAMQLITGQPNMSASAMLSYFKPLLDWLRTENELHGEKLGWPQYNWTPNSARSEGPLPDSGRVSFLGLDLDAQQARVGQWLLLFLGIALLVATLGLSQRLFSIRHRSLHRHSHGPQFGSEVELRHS
# [4] = target: T2, Guinea pig serum ACE (Cavia porcellus, UniProt H0UWL7); test: Kinetics of benzoyl-Phe-Ala-Pro hydrolysis (Example 6); type: biochemical; settings: for V (reaction velocity): 37° C., 10 minutes
# T2 sequence (H0UWL7 33-1234): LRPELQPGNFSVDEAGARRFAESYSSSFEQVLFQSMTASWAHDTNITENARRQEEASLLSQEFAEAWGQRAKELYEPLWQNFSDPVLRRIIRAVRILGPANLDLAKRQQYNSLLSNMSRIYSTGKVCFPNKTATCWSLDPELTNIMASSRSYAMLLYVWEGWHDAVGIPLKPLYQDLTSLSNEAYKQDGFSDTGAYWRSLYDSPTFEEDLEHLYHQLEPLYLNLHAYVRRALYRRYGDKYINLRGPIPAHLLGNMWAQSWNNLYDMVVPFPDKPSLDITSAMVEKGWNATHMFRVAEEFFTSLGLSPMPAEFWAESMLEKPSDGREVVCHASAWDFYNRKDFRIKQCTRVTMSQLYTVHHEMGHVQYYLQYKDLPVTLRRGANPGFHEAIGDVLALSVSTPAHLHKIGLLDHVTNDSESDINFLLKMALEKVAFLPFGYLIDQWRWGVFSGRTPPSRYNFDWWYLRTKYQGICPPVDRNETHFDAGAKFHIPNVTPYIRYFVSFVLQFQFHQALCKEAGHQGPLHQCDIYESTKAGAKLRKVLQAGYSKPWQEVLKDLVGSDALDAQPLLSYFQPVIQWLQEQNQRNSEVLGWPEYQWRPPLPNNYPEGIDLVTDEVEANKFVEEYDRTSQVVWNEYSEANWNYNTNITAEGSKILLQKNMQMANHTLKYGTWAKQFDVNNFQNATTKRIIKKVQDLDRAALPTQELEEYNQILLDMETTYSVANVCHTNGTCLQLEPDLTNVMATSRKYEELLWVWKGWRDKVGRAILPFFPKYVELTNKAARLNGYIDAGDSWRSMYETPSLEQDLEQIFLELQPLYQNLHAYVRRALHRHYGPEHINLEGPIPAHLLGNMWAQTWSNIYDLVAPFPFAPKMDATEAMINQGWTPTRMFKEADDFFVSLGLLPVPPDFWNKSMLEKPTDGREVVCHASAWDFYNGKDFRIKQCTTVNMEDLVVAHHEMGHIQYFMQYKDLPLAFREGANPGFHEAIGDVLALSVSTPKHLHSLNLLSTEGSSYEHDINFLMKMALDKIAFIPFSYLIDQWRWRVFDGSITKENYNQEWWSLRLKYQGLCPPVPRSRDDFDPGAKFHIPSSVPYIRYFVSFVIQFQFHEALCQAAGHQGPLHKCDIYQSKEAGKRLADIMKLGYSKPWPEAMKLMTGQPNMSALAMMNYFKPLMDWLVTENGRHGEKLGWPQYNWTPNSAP
# [5] = Solvent extraction of substrate and remnant product from acidified reaction mixture; type: physicochemical
# From the text: While a variety of organic solvents may be suitable for the extraction step, it is preferred to employ toluene.
compound,measurement,setting,value
CC(C)C[C@H](NC(=O)[C@H](Cc1c[nH]cn1)NC(=O)CNC(=O)c1ccccc1)C(=O)O [HipHisLeu] (Bz-Gly-His-Leu-OH),Reaction Velocity-Percent of Substrate Hydrolyzed in 10 minutes,"[1]; HipHisLeu, 0.05M Hepes, pH 8.0, 0.0M NaCl, Na2 SO4 concentration 0",0%
same,Reaction Velocity-Percent of Substrate Hydrolyzed in 10 minutes,"[1]; HipHisLeu, 0.05M Hepes, pH 8.0, 0.0M NaCl, Na2 SO4 concentration 0.1",0%
same,Reaction Velocity-Percent of Substrate Hydrolyzed in 10 minutes,"[1]; HipHisLeu, 0.05M Hepes, pH 8.0, 0.0M NaCl, Na2 SO4 concentration 0.2",0%
same,Reaction Velocity-Percent of Substrate Hydrolyzed in 10 minutes,"[1]; HipHisLeu, 0.05M Hepes, pH 8.0, 0.0M NaCl, Na2 SO4 concentration 0.3",0%
same,Reaction Velocity-Percent of Substrate Hydrolyzed in 10 minutes,"[1]; HipHisLeu, 0.05M Hepes, pH 8.0, 0.0M NaCl, Na2 SO4 concentration 0.4",0.1%
same,Reaction Velocity-Percent of Substrate Hydrolyzed in 10 minutes,"[1]; HipHisLeu, 0.05M Hepes, pH 8.0, 0.0M NaCl, Na2 SO4 concentration 0.5",0.1%
same,Reaction Velocity-Percent of Substrate Hydrolyzed in 10 minutes,"[1]; HipHisLeu, 0.05M Hepes, pH 8.0, 0.0M NaCl, Na2 SO4 concentration 0.6",0.25%
same,Reaction Velocity-Percent of Substrate Hydrolyzed in 10 minutes,"[1]; HipHisLeu, 0.05M Hepes, pH 8.0, 0.0M NaCl, Na2 SO4 concentration 0.7",0.25%
same,Reaction Velocity-Percent of Substrate Hydrolyzed in 10 minutes,"[1]; HipHisLeu, 0.05M Hepes, pH 8.0, 0.0M NaCl, Na2 SO4 concentration 0.75",0.25%
same,Reaction Velocity-Percent of Substrate Hydrolyzed in 10 minutes,"[1]; HipHisLeu, 0.05M Hepes, pH 8.0, 0.0M NaCl, Na2 SO4 concentration 0.8",0.25%
same,Reaction Velocity-Percent of Substrate Hydrolyzed in 10 minutes,"[1]; HipHisLeu, 0.05M Hepes, pH 8.0, 0.0M NaCl, Na2 SO4 concentration 0.9",0.7%
same,Reaction Velocity-Percent of Substrate Hydrolyzed in 10 minutes,"[1]; HipHisLeu, 0.05M Hepes, pH 8.0, 0.0M NaCl, Na2 SO4 concentration 1.2",3.9%
same,Reaction Velocity-Percent of Substrate Hydrolyzed in 10 minutes,"[1]; HipHisLeu, 0.05M Hepes, pH 8.0, 0.1M NaCl, Na2 SO4 concentration 0",0.3%
same,Reaction Velocity-Percent of Substrate Hydrolyzed in 10 minutes,"[1]; HipHisLeu, 0.05M Hepes, pH 8.0, 0.1M NaCl, Na2 SO4 concentration 0.4",4.1%
same,Reaction Velocity-Percent of Substrate Hydrolyzed in 10 minutes,"[1]; HipHisLeu, 0.05M Hepes, pH 8.0, 0.1M NaCl, Na2 SO4 concentration 0.6",8.3%
same,Reaction Velocity-Percent of Substrate Hydrolyzed in 10 minutes,"[1]; HipHisLeu, 0.05M Hepes, pH 8.0, 0.1M NaCl, Na2 SO4 concentration 0.75",12.05%
same,Reaction Velocity-Percent of Substrate Hydrolyzed in 10 minutes,"[1]; HipHisLeu, 0.05M Hepes, pH 8.0, 0.1M NaCl, Na2 SO4 concentration 0.9",12.25%
same,Km,[2],~2600 µM
same,inhibition of hydrolysis,[3],86%
"C[C@H](NC(=O)[C@H](Cc1ccccc1)NC(=O)c1ccccc1)C(=O)N1CCC[C@H]1C(=O)O [benzoylPheAlaPro, benzoyl-Phe-Ala-Pro] (Bz-Phe-Ala-Pro-OH)",Reaction Velocity-Percent of Substrate Hydrolyzed in 10 minutes,"[1]; benzPheAlaPro, 0.05 Hepes, pH 8.0, 0.15M HCl, Na2 SO4 concentration 0",4.4%
same,Reaction Velocity-Percent of Substrate Hydrolyzed in 10 minutes,"[1]; benzPheAlaPro, 0.05 Hepes, pH 8.0, 0.15M HCl, Na2 SO4 concentration 0.1",5.0%
same,Reaction Velocity-Percent of Substrate Hydrolyzed in 10 minutes,"[1]; benzPheAlaPro, 0.05 Hepes, pH 8.0, 0.15M HCl, Na2 SO4 concentration 0.2",4.45%
same,Reaction Velocity-Percent of Substrate Hydrolyzed in 10 minutes,"[1]; benzPheAlaPro, 0.05 Hepes, pH 8.0, 0.15M HCl, Na2 SO4 concentration 0.3",4.85%
same,Reaction Velocity-Percent of Substrate Hydrolyzed in 10 minutes,"[1]; benzPheAlaPro, 0.05 Hepes, pH 8.0, 0.15M HCl, Na2 SO4 concentration 0.5",5.6%
same,Vmax,"[4]; 0.05 M Hepes, pH 8.0, 0.15 M NaCl, Guinea pig serum diluted 1:1000",10 pmol/min/mL
same,Km,"[4]; 0.05 M Hepes, pH 8.0, 0.15 M NaCl, Lineweaver and Burke plot, read-out: apparent Km",14 µM
same,1/V,[4]; BenzPheAlaPro concentration 1.0 μM,1.50 mL·min/pmol
same,V (reaction velocity),"[4]; BenzPheAlaPro concentration 1.0 μM, 0.05 M Hepes, pH 8.0, 0.15 M NaCl",0.67 pmol/min/mL
same,1/V,[4]; BenzPheAlaPro concentration 5.0 μM,0.48 mL·min/pmol
same,V (reaction velocity),"[4]; BenzPheAlaPro concentration 5.0 μM, 0.05 M Hepes, pH 8.0, 0.15 M NaCl",2.08 pmol/min/mL
same,1/V,[4]; BenzPheAlaPro concentration 10.0 μM,0.24 mL·min/pmol
same,V (reaction velocity),"[4]; BenzPheAlaPro concentration 10.0 μM, 0.05 M Hepes, pH 8.0, 0.15 M NaCl",4.17 pmol/min/mL
same,1/V,[4]; BenzPheAlaPro concentration 66.7 μM,0.11 mL·min/pmol
same,V (reaction velocity),"[4]; BenzPheAlaPro concentration 66.7 μM, 0.05 M Hepes, pH 8.0, 0.15 M NaCl",9.09 pmol/min/mL
same,extraction into ethyl acetate,[5]; reaction terminated with dilute hydrochloric acid,almost quantitatively
same,fraction entering the toluene phase,[5]; toluene and acidified reaction mixture in approximately equal volumes at room temperature,6%
